Consider ten compounds from patent US20250127904A1, “SIGLEC LIGANDS, CONJUGATES, AND METHODS OF USE THEREOF” (Osprey Biopharmaceuticals, Inc., priority 2023, published 2025).

For test [1], the target named is T1, biotinylated human siglec-2/CD22 protein-His-Avitag (Homo sapiens, UniProt P20273).
T1 construct: purchased Acro Biosystems SI2-H82E3
T1 sequence (P20273 20-847): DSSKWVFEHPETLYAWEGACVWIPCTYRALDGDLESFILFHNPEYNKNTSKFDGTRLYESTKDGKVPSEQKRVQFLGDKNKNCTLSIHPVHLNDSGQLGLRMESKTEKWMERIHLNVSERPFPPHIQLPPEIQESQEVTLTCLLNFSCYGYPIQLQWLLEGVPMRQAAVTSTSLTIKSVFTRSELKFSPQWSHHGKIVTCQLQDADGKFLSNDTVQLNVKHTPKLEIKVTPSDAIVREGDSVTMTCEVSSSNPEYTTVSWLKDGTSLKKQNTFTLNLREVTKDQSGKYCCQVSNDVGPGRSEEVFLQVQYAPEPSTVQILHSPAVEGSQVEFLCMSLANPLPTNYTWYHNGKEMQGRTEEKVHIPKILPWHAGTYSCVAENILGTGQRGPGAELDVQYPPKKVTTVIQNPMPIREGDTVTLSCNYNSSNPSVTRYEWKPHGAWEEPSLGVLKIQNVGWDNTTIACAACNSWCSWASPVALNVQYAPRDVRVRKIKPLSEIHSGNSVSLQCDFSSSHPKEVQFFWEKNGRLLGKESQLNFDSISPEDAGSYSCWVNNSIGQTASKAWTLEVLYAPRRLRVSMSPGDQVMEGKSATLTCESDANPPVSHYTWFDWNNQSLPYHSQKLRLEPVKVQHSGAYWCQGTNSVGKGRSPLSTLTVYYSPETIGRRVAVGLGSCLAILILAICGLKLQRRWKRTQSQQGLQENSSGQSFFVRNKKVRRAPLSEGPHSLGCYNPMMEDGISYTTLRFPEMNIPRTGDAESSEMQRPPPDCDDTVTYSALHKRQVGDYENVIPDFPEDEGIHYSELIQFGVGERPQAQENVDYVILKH
In words: SPR binding to human siglec-2/CD22. The following applies: steady-state analysis, read-out: Human CD22 affinity. The method, then:
(§1) The following proteins were used for CD22 ligand binding: biotinylated human siglec-2/CD22 protein-His-Avitag (Acro Biosystems, Cat #SI2-H82E3), biotinylated mouse siglec-2-Fc-Avi (in-house production), and recombinant cynomolgus siglec-2/CD22 His-tag (R&D systems, Cat #9864-SL-050). Prior to immobilization, CD22 proteins were treated with SialoExo (Genovis, Cat #G1-SM1-020) for 4 hours at 37° C. to remove native sialic acid residues.
(§2) Capture of biotinylated CD22 constructs was performed using a Cytiva SA chip (BR100398) on a Biacore 8K instrument. Human siglec 2 was immobilized on channels 1-4 and mouse siglec 2 on channels 5-8 on the active flow cell (2) and the reference flow cell (1) was immobilized with biotinylated human FGFR2 Fc Avi, an unrelated protein, to account for any nonspecific binding. Human siglec 2 and Mouse siglec 2 were diluted in running buffer to 20 μg/mL and injected on the active flow cell (2) for 300 seconds at 5 μL/min, yielding about 3500 RU of captured constructs.
(§3) Binding experiments of siglec-ligand conjugated proteins or Siglec ligand compounds were performed on the surfaces prepared above in 10 mM HEPES, 150 mM NaCl, 0.05% Tween-20, pH 7.5, 1% DMSO as the running buffer. Compounds were serially diluted in running buffer from 50 μM to 97.6 nM and injected over both the reference and active flow cells for 90 seconds at 30 μL/min. The compounds were then allowed to dissociate from the surface for 120 seconds. No regeneration was required as the compounds completely dissociated from the surface after 30 seconds. Solvent correction was performed using 0.5, 1, 1.5, and 2% DMSO spike into running buffer without DMSO. Data was analyzed using steady-state analysis in Biacore Insight Evaluation Software, version 3.0.

The target of test [2] is recombinant cynomolgus siglec-2/CD22 His-tag (Macaca fascicularis, UniProt A0A2K5WCZ6). In words: SPR binding to cynomolgus siglec-2/CD22. The following applies: steady-state analysis, read-out: Cyno CD22 affinity. The method, then: as §1
recombinant cynomolgus siglec-2/CD22 His-tag, sequence (A0A2K5WCZ6 entry or part of it): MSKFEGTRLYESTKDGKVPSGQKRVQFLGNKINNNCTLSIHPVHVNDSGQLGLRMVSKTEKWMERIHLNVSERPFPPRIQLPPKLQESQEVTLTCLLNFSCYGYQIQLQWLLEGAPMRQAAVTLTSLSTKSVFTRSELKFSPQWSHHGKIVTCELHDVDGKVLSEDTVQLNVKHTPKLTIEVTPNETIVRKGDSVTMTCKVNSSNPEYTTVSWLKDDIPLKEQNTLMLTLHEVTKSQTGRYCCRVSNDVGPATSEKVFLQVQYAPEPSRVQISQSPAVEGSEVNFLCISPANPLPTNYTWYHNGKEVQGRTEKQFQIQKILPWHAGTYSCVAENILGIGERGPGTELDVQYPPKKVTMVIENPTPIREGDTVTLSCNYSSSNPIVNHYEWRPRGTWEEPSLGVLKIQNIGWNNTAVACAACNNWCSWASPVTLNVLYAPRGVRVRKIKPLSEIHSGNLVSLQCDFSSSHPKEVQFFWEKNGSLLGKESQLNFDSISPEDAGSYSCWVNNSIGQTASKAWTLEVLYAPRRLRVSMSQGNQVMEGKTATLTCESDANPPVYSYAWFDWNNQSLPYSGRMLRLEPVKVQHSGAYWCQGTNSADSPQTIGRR
Surface preparation for cyno CD22 protein consisted of amine coupling to Cytiva CM5 chip (Cytiva, Cat #BR100530) using the Cytiva amine coupling kit Type 2 (Cytiva, Cat #BR100633). Following the standard amine coupling protocols, EDC and NHS from the kit were mixed 1:1 and injected over flow cells 1 and 2. Cyno CD22 was then immobilized by injecting 10 μg/mL in Sodium Acetate, pH 5.5 onto flow cell (2) for 420 seconds at 10 uL/min, yielding approximately 2500 RU of captured protein. Any active carboxy groups were then capped with 1M Ethanolamine, pH 8.5 for 420 s on flow cells 1 and 2.
as §3

The target in test [3] is T2, biotinylated mouse siglec-2-Fc-Avi (Mus musculus, UniProt P35329).
T2 construct: made in house
T2 sequence (P35329 22-708 limits assumed): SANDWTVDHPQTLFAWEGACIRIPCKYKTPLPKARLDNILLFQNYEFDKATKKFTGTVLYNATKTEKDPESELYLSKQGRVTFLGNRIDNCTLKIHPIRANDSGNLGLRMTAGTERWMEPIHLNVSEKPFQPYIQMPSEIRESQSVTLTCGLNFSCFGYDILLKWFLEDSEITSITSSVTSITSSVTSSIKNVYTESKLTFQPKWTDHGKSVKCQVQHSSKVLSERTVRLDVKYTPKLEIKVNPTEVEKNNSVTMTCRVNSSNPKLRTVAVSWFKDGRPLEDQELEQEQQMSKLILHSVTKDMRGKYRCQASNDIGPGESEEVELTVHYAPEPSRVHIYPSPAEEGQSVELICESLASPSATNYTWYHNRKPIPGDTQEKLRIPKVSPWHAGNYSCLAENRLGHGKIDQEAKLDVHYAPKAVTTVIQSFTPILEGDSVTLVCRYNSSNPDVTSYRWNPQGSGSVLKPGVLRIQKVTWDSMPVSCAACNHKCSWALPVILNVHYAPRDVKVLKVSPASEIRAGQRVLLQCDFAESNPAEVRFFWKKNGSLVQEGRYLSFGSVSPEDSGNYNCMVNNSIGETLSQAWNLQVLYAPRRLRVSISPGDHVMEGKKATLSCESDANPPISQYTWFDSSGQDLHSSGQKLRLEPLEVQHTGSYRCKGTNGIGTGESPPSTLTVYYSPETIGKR
In words: SPR binding to mouse siglec-2/CD22. The conditions noted are these: steady-state analysis, read-out: Mouse CD22 affinity. As for the experimental part: as §1, §2, §3
In general terms: In SPR one partner is held on a chip, and binding of the other changes the refractive index at the surface.

For the compound `C#CCOCCOCCOCc1ccc(CC(=O)NC[C@@H](O)[C@@H](O)[C@@H]2O[C@@](OCc3ccccc3)(C(=O)O)C[C@H](O)[C@H]2NC(=O)CO)cc1` [Compound 9, (2R,4S,5R,6R)-2-(benzyloxy)-6-((1R,2R)-1,2-dihydroxy-3-(2-(4-((2-(2-(prop-2-yn-1-yloxy)ethoxy)ethoxy)methyl)phenyl)acetamido)propyl)-4-hydroxy-5-(2-hydroxyacetamido)tetrahydro-2H-pyran-2-carboxylic acid], the Kd in test [1], in test [2] and in test [3] was 1000 to 10000 nM throughout.
Regarding `O=C(O)CCCCCCCCCCc1ccc(CC(=O)NC[C@@H](O)[C@@H](O)[C@@H]2O[C@@](OCc3ccccc3)(C(=O)O)C[C@H](O)[C@H]2NC(=O)CO)cc1` [Compound 8, (2R,4S,5R,6R)-2-(benzyloxy)-6-((1R,2R)-3-(2-(4-(10-carboxydecyl)phenyl)acetamido)-1,2-dihydroxypropyl)-4-hydroxy-5-(2-hydroxyacetamido)tetrahydro-2H-pyran-2-carboxylic acid], the Kd in test [1] was below 1000 nM; in test [2] it was 1000 to 10000 nM; in test [3], below 1000 nM.
As to `C#CCOCCOCCOc1ccc(CC(=O)NC[C@@H](O)[C@@H](O)[C@@H]2O[C@@](OCc3ccccc3)(C(=O)O)C[C@H](O)[C@H]2NC(=O)CO)cc1` [Compound 15, (2R,4S,5R,6R)-2-(benzyloxy)-6-((1R,2R)-1,2-dihydroxy-3-(2-(4-(2-(2-(prop-2-yn-1-yloxy)ethoxy)ethoxy)phenyl)acetamido)propyl)-4-hydroxy-5-(2-hydroxyacetamido)tetrahydro-2H-pyran-2-carboxylic acid], the Kd in test [1], in test [2] and in test [3] was 1000 to 10000 nM each time.
With `O=C(Cc1ccc(OCc2cn(CCO)nn2)cc1)NC[C@@H](O)[C@@H](O)[C@@H]1O[C@@](OCc2ccccc2)(C(=O)O)C[C@H](O)[C@H]1NC(=O)CO` [Compound 5, (2R,4S,5R,6R)-2-(benzyloxy)-6-((1R,2R)-1,2-dihydroxy-3-(2-(4-((1-(2-hydroxyethyl)-1H-1,2,3-triazol-4-yl)methoxy)phenyl)acetamido)propyl)-4-hydroxy-5-(2-hydroxyacetamido)tetrahydro-2H-pyran-2-carboxylic acid], the Kd in test [1] and in test [3] was 1000 to 10000 nM in each case.
For `C#CCOc1ccc(CC(=O)NC[C@@H](O)[C@@H](O)[C@@H]2O[C@@](OCc3ccccc3)(C(=O)O)C[C@H](O)[C@H]2NC(=O)CO)cc1` [Compound 4, (2R,4S,5R,6R)-2-(benzyloxy)-6-((1R,2R)-1,2-dihydroxy-3-(2-(4-(prop-2-yn-1-yloxy)phenyl)acetamido)propyl)-4-hydroxy-5-(2-hydroxyacetamido)tetrahydro-2H-pyran-2-carboxylic acid], the Kd in test [1] and in test [3] was 1000 to 10000 nM in each case.
In the case of `O=C(Cc1ccc(-c2cn(CCO)nn2)cc1)NC[C@@H](O)[C@@H](O)[C@@H]1O[C@@](OCc2ccccc2)(C(=O)O)C[C@H](O)[C@H]1NC(=O)CO` [Compound 2, (2R,4S,5R,6R)-2-(benzyloxy)-6-((1R,2R)-1,2-dihydroxy-3-(2-(4-(1-(2-hydroxyethyl)-1H-1,2,3-triazol-4-yl)phenyl)acetamido)propyl)-4-hydroxy-5-(2-hydroxyacetamido)tetrahydro-2H-pyran-2-carboxylic acid], the Kd in test [1] and in test [3] was 1000 to 10000 nM throughout.
As for `C#Cc1ccc(CC(=O)NC[C@@H](O)[C@@H](O)[C@@H]2O[C@@](OCCCCCCNc3c(NCCOC)c(=O)c3=O)(C(=O)O)C[C@H](O)[C@H]2NC(=O)CO)cc1` [Compound 26, (2R,4S,5R,6R)-6-((1R,2R)-3-(2-(4-ethynylphenyl)acetamido)-1,2-dihydroxypropyl)-4-hydroxy-5-(2-hydroxyacetamido)-2-((6-((2-((2-methoxyethyl)amino)-3,4-dioxocyclobut-1-en-1-yl)amino)hexyl)oxy)tetrahydro-2H-pyran-2-carboxylic acid], the Kd in test [1] and in test [3] was below 1000 nM each time.
Take `C#Cc1ccc(CC(=O)NC[C@@H](O)[C@@H](O)[C@@H]2O[C@@](OCCCCCCNC(=O)CCCC)(C(=O)O)C[C@H](O)[C@H]2NC(=O)CO)cc1` [Compound 29, (2R,4S,5R,6R)-6-((1R,2R)-3-(2-(4-ethynylphenyl)acetamido)-1,2-dihydroxypropyl)-4-hydroxy-5-(2-hydroxyacetamido)-2-((6-pentanamidohexyl)oxy)tetrahydro-2H-pyran-2-carboxylic acid]: the Kd in test [1] and in test [3] was below 1000 nM throughout.
As for `C#Cc1ccc(CC(=O)NC[C@@H](O)[C@@H](O)[C@@H]2O[C@@](OCCCCCCN)(C(=O)O)C[C@H](O)[C@H]2NC(=O)CO)cc1` [Compound 10, (2R,4S,5R,6R)-2-((6-aminohexyl)oxy)-6-((1R,2R)-3-(2-(4-ethynylphenyl)acetamido)-1,2-dihydroxypropyl)-4-hydroxy-5-(2-hydroxyacetamido)tetrahydro-2H-pyran-2-carboxylic acid], the Kd in test [1] and in test [3] was 1000 to 10000 nM throughout.
Regarding `C#CCCCCCCC#Cc1ccc(CC(=O)NC[C@@H](O)[C@@H](O)[C@@H]2O[C@@](OCc3ccccc3)(C(=O)O)C[C@H](O)[C@H]2NC(=O)CO)cc1` [Compound 6, (2R,4S,5R,6R)-2-(benzyloxy)-6-((1R,2R)-3-(2-(4-(deca-1,9-diyn-1-yl)phenyl)acetamido)-1,2-dihydroxypropyl)-4-hydroxy-5-(2-hydroxyacetamido)tetrahydro-2H-pyran-2-carboxylic acid], the Kd in test [1] and in test [3] was 1000 to 10000 nM in each case.
